SMILES strings stand for the structures.

The subject of one data set is CYP3A4/5. Nature of the data set: Single concentration Kobs assay (time-dependent inhibition) in HLM. Conditions: for Kobs 3A4: HLM, 0.02 min^−1 indicates TD inhibition potential; for Kobs 3A4 / inhibition at 30 min: single concentration; for Single concentration Kobs assay (risk bin) 3A4: TD inhibition class from Kobs vs 0.02 min^−1 (Table 5 traffic lights); for inhibition at 30 min: human, human liver microsomes, significant if >50%, read-out: 3A4 R_Inh% (reversible inhibition). In kind it is biochemical, human. From the text:
CYP inhibition evaluation is typically performed by either IC50 at single-point or IC50 Shift or abbreviated assay such as the first-order inactivity rate constant (K obs ) at single concentration.
This method yielded good correlations between the percent inhibition at 10 or 25 μ M and kinact/KI. Evaluation of TD inhibition at single concentration has been implemented in several drug discovery programs. […] Therefore, in this study, a single K obs approach has been utilized to understand the TD inhibition potential of TbB ligands. Ideally, the inhibition of CYPs can be reversible or irreversible. The data obtained from single-concentration K obs studies were analyzed to understand the same. From the data presented in Table 4, the TbB ligands have values less than 50% for reversible inhibition (R_Inh). As the qualified % reversible inhibition is considered significant if >50%, no significant reversible inhibition is observed for TbB ligands. Knowledge about enzyme inactivation half-life (E½) is also equally important as it would provide insight into the TD inhibition of a compound. E½ can be used to bin the compounds as positive or negative TD inhibitors if the values are <28 or >28, respectively. The TbB ligand 223-2 is observed to be a weak positive TD inhibitor of 1A2 and is negative TD inhibitor to the other six CYP isoforms.
The time-dependent inhibition (TDI) potential of test compounds against CYP1A2, 2B6, 2C8, 2C9, 2C19, 2D6, 3A4/5 isoforms were determined using Human liver microsomes. Assay is performed in 96-deep well plate format (n = 1). Positive controls and DMSO as negative control in each assay. To obtain 100 μ M working stock solution, 1 μ L of blank DMSO/test/reference compounds to 100 μ L 1× DPBS buffer was added and labeled as dilution plate. To the primary incubation plate, 45 μ L of primary mix was dispensed to the desired wells containing 25 μ L HLM, 10 μ L MgCl2, and 10 μ L of NADPH working solutions. To the secondary incubation plate, 95 μ L of secondary mix was dispensed to the desired wells containing 20 μ L MgCl2, 20 μ L NADPH, 10 μ L respective substrates for CYP isoform working solutions and 45 μ L 1× DPBS buffer. Each of these four plates were labeled with their respective time points, i.e., 0, 6, 16, 32 min. Pre-incubated the dilution plate along with primary incubation plate at 37 °C for 15 min at 450 rpm. The reaction was carried out in triplicate. After the incubation, the reaction was quenched by adding 150 μ L ice cold stop solution to all the wells followed by centrifuging the samples at 4000 rpm, 4 °C for 15 min. The supernatant samples were then transferred into vials for LC-MS/MS analysis. The percent Reversible Inhibition was calculated using the following formula. %Reversibleinhibition=100−(PARtestcompt0×100)/(PARaverageDMSOt0)

A further data set has as its target T1, CYP2C9 (Homo sapiens, UniProt P11712).
T1 construct: Using HLM as the enzyme source; from tissue; host or cells: human liver microsomes
Nature of the data set: CYP inhibition assay in HLM, single concentration. It is filed as biochemical. To be noted: human liver microsomes, probe Tolbutamide, n = 3, read-out: % Inhibition (CYP 2C9). As for the experimental part:
(§1) The regulatory bodies and pharmaceutical firms are quite concerned about CYP inhibition. Therefore, medicinal chemists often change the lead structure to decrease CYP inhibition. If left uncorrected, it can cause DDIs, enhanced drug concentration, and, thus, toxicity.
(§2) Using HLM as the enzyme source, the CYP inhibition potential was employed to assess the inhibitory effect of the TbB ligands on the CYP1A2, 2B6, 2C8, 2C9, 2C19, and 2D6 3A4 isoforms. Phenacetin (CYP1A2, […]), tolbutamide (CYP2C9, 20 mM), bupropion (CYP2B6, […]), mephenytoin (CYP2C19, […]), midazolam (CYP3A4, 5 mM), amodiaquine (CYP2C8, 0.02 mM), and dextromethorphan (CYP2D6, 5 mM) were used as probe substrates. The test substance included TbB ligand (final concentrations of […] for each) and HLMs (final concentration of 0.1 mg protein per mL), with or without 1.0 mM NADPH. The reaction was started by adding pre-incubated 25 μ L of NADPH into all wells and incubate at 37 °C for 10 min for 3A4 and 20 min for remaining all isoforms. The reaction was stopped by adding 100 μ L of stop solution to all wells. The samples were centrifuged at 4000 rpm for 10 min at 4 °C. Supernatant (100 μ L) was withdrawn, mixed with 200 μ L of water followed by LC-MS/MS analysis.

In another data set the target is T2, CYP2D6 (Homo sapiens, UniProt P10635).
T2 construct: Using HLM as the enzyme source; from tissue; host or cells: human liver microsomes
T2 sequence (P10635 whole entry): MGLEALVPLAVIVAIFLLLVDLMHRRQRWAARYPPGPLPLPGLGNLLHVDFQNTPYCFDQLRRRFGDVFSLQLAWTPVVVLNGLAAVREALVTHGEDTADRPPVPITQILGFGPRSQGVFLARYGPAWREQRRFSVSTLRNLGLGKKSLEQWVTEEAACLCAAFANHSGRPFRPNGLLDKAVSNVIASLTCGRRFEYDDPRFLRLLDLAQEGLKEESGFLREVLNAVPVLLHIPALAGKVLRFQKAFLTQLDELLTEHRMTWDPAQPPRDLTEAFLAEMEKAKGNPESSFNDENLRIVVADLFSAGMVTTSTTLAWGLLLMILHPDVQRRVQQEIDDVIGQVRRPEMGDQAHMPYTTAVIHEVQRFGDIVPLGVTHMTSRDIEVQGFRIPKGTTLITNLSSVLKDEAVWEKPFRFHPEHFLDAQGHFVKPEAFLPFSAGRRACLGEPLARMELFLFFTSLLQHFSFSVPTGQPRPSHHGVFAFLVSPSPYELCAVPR
The data set is described as follows: CYP inhibition assay in HLM, single concentration. In kind it is biochemical. To be noted: human liver microsomes, probe Dextromethorphan, n = 3, read-out: % Inhibition (CYP 2D6). As for the experimental part: as §1, §2

The next data set concerns the target T3, CYP1A2 (Homo sapiens, UniProt P05177).
T3 construct: Using HLM as the enzyme source; from tissue; host or cells: human liver microsomes
T3 sequence (P05177 1-516): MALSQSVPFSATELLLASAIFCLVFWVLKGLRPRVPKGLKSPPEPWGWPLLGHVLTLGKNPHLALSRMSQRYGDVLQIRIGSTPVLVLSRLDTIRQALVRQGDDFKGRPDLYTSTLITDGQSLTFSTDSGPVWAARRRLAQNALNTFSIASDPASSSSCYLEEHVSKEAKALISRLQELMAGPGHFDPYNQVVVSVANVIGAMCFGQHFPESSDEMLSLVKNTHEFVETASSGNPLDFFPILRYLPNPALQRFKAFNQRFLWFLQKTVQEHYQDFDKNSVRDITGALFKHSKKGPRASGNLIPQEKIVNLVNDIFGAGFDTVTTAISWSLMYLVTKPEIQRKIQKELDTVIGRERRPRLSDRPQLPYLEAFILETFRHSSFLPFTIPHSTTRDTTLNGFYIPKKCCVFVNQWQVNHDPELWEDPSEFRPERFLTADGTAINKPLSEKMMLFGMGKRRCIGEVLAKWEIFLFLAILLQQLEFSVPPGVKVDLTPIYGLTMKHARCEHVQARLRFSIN
The data set is described as follows: CYP inhibition assay in HLM, single concentration. Conditions: human liver microsomes, probe Phenacetin, n = 3, read-out: % Inhibition (CYP 1A2). In kind it is biochemical. The procedure: as §1, §2

A further data set deals with T4, CYP3A4 (Homo sapiens, UniProt P08684).
T4 construct: Using HLM as the enzyme source; from tissue; host or cells: human liver microsomes
T4 sequence (P08684 whole entry): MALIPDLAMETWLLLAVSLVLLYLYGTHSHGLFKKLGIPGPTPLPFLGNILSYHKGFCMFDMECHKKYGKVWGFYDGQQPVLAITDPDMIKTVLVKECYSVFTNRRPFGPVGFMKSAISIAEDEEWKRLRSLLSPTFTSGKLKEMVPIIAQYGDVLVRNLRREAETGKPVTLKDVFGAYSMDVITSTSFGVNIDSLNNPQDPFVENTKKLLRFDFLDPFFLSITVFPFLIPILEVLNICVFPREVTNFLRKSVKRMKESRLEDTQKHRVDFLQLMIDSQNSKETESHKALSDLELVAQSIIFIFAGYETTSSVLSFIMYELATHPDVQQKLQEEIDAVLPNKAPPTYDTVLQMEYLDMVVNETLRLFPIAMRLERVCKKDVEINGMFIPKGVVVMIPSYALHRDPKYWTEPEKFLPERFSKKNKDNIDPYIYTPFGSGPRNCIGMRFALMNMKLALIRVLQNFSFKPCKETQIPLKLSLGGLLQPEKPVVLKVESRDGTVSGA
The data set is described as follows: CYP inhibition assay in HLM, single concentration. It is filed as biochemical. To be noted: human liver microsomes, probe Midazolam, n = 3, read-out: % Inhibition (CYP 3A4). As for the experimental part:
as §1, §2

A further data set deals with T5, CYP2C19 (Homo sapiens, UniProt P33261).
T5 construct: Using HLM as the enzyme source; from tissue; host or cells: human liver microsomes
T5 sequence (P33261 whole entry): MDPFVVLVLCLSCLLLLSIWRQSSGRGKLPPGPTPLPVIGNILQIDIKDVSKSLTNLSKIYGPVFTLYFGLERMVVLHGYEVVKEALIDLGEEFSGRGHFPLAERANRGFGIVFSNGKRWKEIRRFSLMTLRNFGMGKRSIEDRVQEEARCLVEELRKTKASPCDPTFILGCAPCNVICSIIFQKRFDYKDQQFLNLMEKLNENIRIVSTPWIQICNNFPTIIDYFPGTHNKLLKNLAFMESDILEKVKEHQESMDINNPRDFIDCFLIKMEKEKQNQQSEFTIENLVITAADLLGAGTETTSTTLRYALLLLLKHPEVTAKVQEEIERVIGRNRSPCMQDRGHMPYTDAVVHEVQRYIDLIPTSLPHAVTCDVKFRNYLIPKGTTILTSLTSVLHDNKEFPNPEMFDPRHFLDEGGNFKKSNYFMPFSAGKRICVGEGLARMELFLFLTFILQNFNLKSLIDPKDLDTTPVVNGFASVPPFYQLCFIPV
Nature of the data set: CYP inhibition assay in HLM, single concentration. It is filed as biochemical. Conditions: human liver microsomes, probe S-Mephenytoin, n = 3, read-out: % Inhibition (CYP 2C19). As for the experimental part:
as §1, §2

T1 sequence (P11712 whole entry): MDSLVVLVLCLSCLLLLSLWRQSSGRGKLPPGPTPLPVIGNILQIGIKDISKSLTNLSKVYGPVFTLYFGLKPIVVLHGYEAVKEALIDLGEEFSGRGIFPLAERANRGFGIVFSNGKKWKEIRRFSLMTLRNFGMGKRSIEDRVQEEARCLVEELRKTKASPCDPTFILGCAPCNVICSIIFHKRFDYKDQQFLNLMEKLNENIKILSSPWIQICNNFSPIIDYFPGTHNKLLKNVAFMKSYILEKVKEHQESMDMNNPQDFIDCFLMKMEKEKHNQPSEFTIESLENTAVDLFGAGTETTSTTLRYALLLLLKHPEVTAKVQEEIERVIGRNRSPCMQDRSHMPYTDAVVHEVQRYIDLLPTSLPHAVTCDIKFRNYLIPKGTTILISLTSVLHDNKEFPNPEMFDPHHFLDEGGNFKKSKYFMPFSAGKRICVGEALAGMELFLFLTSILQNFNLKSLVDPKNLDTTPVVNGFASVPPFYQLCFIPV

On to `COc1cc(-c2nnn(-c3cc(OC)c(O)c(OC)c3)n2)cc(OC)c1O` [223-2], for which the “Kobs 3A4” value in the data set on CYP3A4/5 amounted to 0.006312 min⁻¹. In the data set on CYP3A4/5, the “Single concentration Kobs assay (risk bin) 3A4” value (“Single concentration Kobs assay” below) was “negative inhibitor”. Also, the inhibition at 30 min with CYP3A4/5 was less than 50%. Moreover, the inhibition at 20 min, 10 µM at CYP2C9 was 68%; on CYP2D6 it was -2%; on CYP1A2, 33%; on CYP2C19 it was -2%. In addition, on CYP3A4, the inhibition at 10 min, 10 µM was -6%.

For `Cc1cc(-c2nnn(-c3cc(C)c(O)c(C)c3)n2)cc(C)c1O` [223-3], in the data set with CYP3A4/5, the “Kobs 3A4” value worked out at 0.02143 min⁻¹. Besides, in the data set with CYP3A4/5, the “Single concentration Kobs assay” value is reported as “weak positive inhibitor”. Moreover, the inhibition at 30 min with CYP3A4/5 was less than 50%. Also, the inhibition at 20 min, 10 µM amounted to 82% at CYP2C9, 96% at CYP2D6, 40% on CYP1A2 and 84% at CYP2C19. Also, the inhibition at 10 min, 10 µM at CYP3A4 turned out to be 96%.

On to `Oc1ccc(-c2nnn(-c3ccc(O)cc3)n2)cc1` [223-10], for which the “Kobs 3A4” value in the data set with CYP3A4/5 came to 0.001719 min⁻¹. The “Single concentration Kobs assay” value in the data set with CYP3A4/5 is reported as “negative inhibitor”. Moreover, the inhibition at 30 min in the data set on CYP3A4/5 is less than 50%. The inhibition at 20 min, 10 µM on CYP2C9 was 90%; at CYP2D6, -4%; on CYP1A2 it was 30%; at CYP2C19, 33%. In addition, the inhibition at 10 min, 10 µM on CYP3A4 was 22%.

These data come from paper PMC9921896 (Molecules, 2023).
